# Reference: patent US11919859B2, “Herbicidal mixture, composition and method” (FMC Corporation, priority 2017, dated 2024)
# Columns and labels:
# [1] = test system: late watergrass (ECHPH, Echinochloa phyllopogon); assay: Test A flooded greenhouse test, late watergrass; format: in vivo; conditions: 14 d
# Description: (§1) Seeds of Asian sprangletop (LEPCH, Leptochloa chinensis), smallflower umbrella sedge (CYPDI, Cyperus difformis), monochoria (MOOVA, Monochoria vaginalis) and ducksalad (HETLI, Heteranthera limosa) were sown on the soil surface in four separate quadrants of 16-cm tubs filled with steam pasteurized Tama soil. Simultaneously, plantings of barnyardgrass (ECHCG, Echinochloa crus-galli), japonica rice (ORYSA, Oryza sativa) and late watergrass (ECHPH, Echinochloa phyllopogon) were established in separate “plug” flats. Plants were grown in a greenhouse using supplemental lighting to maintain a photoperiod of approximately 16 h; daytime and nighttime temperatures were approximately 27-30° C. and 24-27° C., respectively. After 8 d, barnyardgrass, rice and late watergrass plants were transplanted in 3 quadrants of separate tub, and the water level was adjusted to a final depth of 3 cm. Herbicide application of Cmpd. No. 1 and florpyrauxifen-benzyl (CAS Registry No. 1390661-72-9; 439.2 g/mol) timing was targeted at the 2.0 to 2.5 leaf stage and the plants were treated with test chemicals formulated in a non-phytotoxic solvent. Treated plants and controls were maintained in a greenhouse for 14 d, after which time all species were compared to controls and visually evaluated. Plant response ratings are summarized in Table A, and are based on a scale of 0 to 100 where 0 is no effect and 100 is complete control and is the mean of duplicate ratings. A dash (-) response means no test result.
# (§2) Colby's Equation was used to determine the herbicidal effects expected from the mixtures. Colby's Equation (Colby, S. R. “Calculating Synergistic and Antagonistic Responses of Herbicide Combinations,” Weeds 1967 15(1), pp 20-22) calculates the expected additive effect of herbicidal mixtures and for two active ingredients is of the form: Pa+b=Pa+Pb−(PaPb/100) wherein Pa+b is the percentage effect of the mixture expected from additive contribution of the individual components: • Pa is the observed percentage effect of the first active ingredient at the same use rate as in the mixture, and • Pb is the observed percentage effect of the second active ingredient at the same use rate as in the mixture. The results and additive effects expected from Colby's Equation are listed in Table A. Application rates are grams of active ingredient per hectare (g a.i./ha). “Obsd.” is the observed effect and “Exp.” is expected effect calculated from Colby's Equation.
# [2] = test system: japonica rice (ORYSA, Oryza sativa); assay: Test A flooded greenhouse test, japonica rice (crop); format: in vivo
# Description: as §1
# Colby's Equation was used to determine the herbicidal effects expected from the mixtures. […] “Obsd.” is the observed effect and “Exp.” is expected effect calculated from Colby's Equation.
# [3] = test system: Asian sprangletop (LEPCH, Leptochloa chinensis); assay: Test A flooded greenhouse test, Asian sprangletop; format: in vivo; conditions: 14 d
# Description: as §1, §2
# [4] = test system: monochoria (MOOVA, Monochoria vaginalis); assay: Test A flooded greenhouse test, monochoria; format: in vivo; conditions: 14 d
# Description: as §1, §2
# [5] = test system: smallflower umbrella sedge (CYPDI, Cyperus difformis); assay: Test A flooded greenhouse test, smallflower umbrella sedge; format: in vivo; conditions: 14 d
# Description: as §1, §2
# [6] = test system: ducksalad (HETLI, Heteranthera limosa); assay: Test A flooded greenhouse test, ducksalad; format: in vivo; conditions: 14 d
# Description: as §1, §2
# [7] = test system: barnyardgrass (ECHCG, Echinochloa crus-galli); assay: Test A flooded greenhouse test, barnyardgrass; format: in vivo; conditions: 14 d
# Description: as §1, §2
# [8] = test system: ragweed (common ragweed, Ambrosia elatior); assay: Test B preemergence, ragweed; format: in vivo; conditions: approximately 10 d
# Description: (§3) Seeds of plant species selected from barnyardgrass (Echinochloa crus-galli), kochia (Kochia scoparia), ragweed (common ragweed, Ambrosia elatior), Ryegrass, Italian (Italian ryegrass, Lolium multiflorum), foxtail, green (green foxtail, Setaria viridis), and pigweed (Amaranthus retroflexus) were planted into a blend of loam soil and sand and treated preemergence with a directed soil spray using test chemicals formulated in a non-phytotoxic solvent mixture which included a surfactant.
# (§4) At the same time, plants selected from these weed species and also wheat (Triticum aestivum), corn (Zea mays), blackgrass (Alopecurus myosuroides), and galium (catchweed bedstraw, Galium aparine) were planted in pots containing the same blend of loam soil and sand and treated with postemergence applications of test chemicals formulated in the same manner. Plants ranged in height from 2 to 10 cm and were in the one- to two-leaf stage for the postemergence treatment. Treated plants and untreated controls were maintained in a greenhouse for approximately 10 d, after which time all treated plants were compared to untreated controls and visually evaluated for injury. Plant response ratings, summarized in Table B, are based on a 0 to 100 scale where 0 is no effect and 100 is complete control. A dash (-) response means no test result.
# [9] = test system: ducksalad (Heteranthera limosa); assay: Test C flooded paddy test, ducksalad; format: in vivo; conditions: Flood; 250 g ai/ha; 13 to 15 d
# Experimental: (§5) Test C Plant species in the flooded paddy test selected from rice (Oryza sativa), sedge, umbrella (small-flower umbrella sedge, Cyperus difformis), ducksalad (Heteranthera limosa), and barnyardgrass (Echinochloa crus-galli) were grown to the 2-leaf stage for testing. At time of treatment, test pots were flooded to 3 cm above the soil surface, treated by application of test compounds directly to the paddy water, and then maintained at that water depth for the duration of the test. Treated plants and controls were maintained in a greenhouse for 13 to 15 d, after which time all species were compared to controls and visually evaluated. Plant response ratings, summarized in Table C, are based on a scale of 0 to 100 where 0 is no effect and 100 is complete control. A dash (-) response means no test result.
# [10] = test system: foxtail, green (green foxtail, Setaria viridis); assay: Test B postemergence, green foxtail; format: in vivo; conditions: approximately 10 d
# Description: as §3, §4
# corn (Zea mays) = assay: Test B postemergence, corn; format: in vivo; conditions: approximately 10 d
# Description: as §3, §4
# [11] = test system: sedge, umbrella (small-flower umbrella sedge, Cyperus difformis); assay: Test C flooded paddy test, umbrella sedge; format: in vivo; conditions: Flood; 250 g ai/ha; 13 to 15 d
# Experimental: as §5
# [12] = test system: galium (catchweed bedstraw, Galium aparine); assay: Test B postemergence, galium; format: in vivo; conditions: approximately 10 d
# Description: as §3, §4
# rice (Oryza sativa) = conditions: in vivo
# Experimental: as §5
# [13] = test system: barnyardgrass (Echinochloa crus-galli); assay: Test C flooded paddy test, barnyardgrass; format: in vivo; conditions: Flood; 250 g ai/ha; 13 to 15 d
# Experimental: as §5
# [14] = test system: blackgrass (Alopecurus myosuroides); assay: Test B postemergence, blackgrass; format: in vivo; conditions: approximately 10 d
# Description: as §3, §4
# [15] = test system: Ryegrass, Italian (Italian ryegrass, Lolium multiflorum); assay: Test B postemergence, Italian ryegrass; format: in vivo; conditions: approximately 10 d
# Description: as §3, §4
# kochia (Kochia scoparia) [16] = assay: Test B preemergence, kochia; format: in vivo; conditions: approximately 10 d
# Description: as §3, §4
# [17] = test system: ragweed (common ragweed, Ambrosia elatior); assay: Test B postemergence, ragweed; format: in vivo; conditions: approximately 10 d
# Description: as §3, §4
# [18] = test system: wheat (Triticum aestivum); assay: Test B postemergence, wheat; format: in vivo; conditions: approximately 10 d
# Description: as §3, §4
# [19] = test system: Ryegrass, Italian (Italian ryegrass, Lolium multiflorum); assay: Test B preemergence, Italian ryegrass; format: in vivo; conditions: approximately 10 d
# Description: as §3, §4
# [20] = test system: foxtail, green (green foxtail, Setaria viridis); assay: Test B preemergence, green foxtail; format: in vivo; conditions: approximately 10 d
# Description: as §3, §4
# kochia (Kochia scoparia) [21] = assay: Test B postemergence, kochia; format: in vivo; conditions: approximately 10 d
# Description: as §3, §4
# [22] = test system: barnyardgrass (Echinochloa crus-galli); assay: Test B postemergence, barnyardgrass; format: in vivo; conditions: approximately 10 d
# Description: as §3, §4
# [23] = test system: pigweed (Amaranthus retroflexus); assay: Test B preemergence, pigweed; format: in vivo; conditions: approximately 10 d
# Description: as §3, §4
# [24] = test system: pigweed (Amaranthus retroflexus); assay: Test B postemergence, pigweed; format: in vivo; conditions: approximately 10 d
# Description: as §3, §4
# [25] = test system: barnyardgrass (Echinochloa crus-galli); assay: Test B preemergence, barnyardgrass; format: in vivo; conditions: approximately 10 d
# Description: as §3, §4
# [26] = florpyrauxifen-benzyl 2 g a.i./ha alone
# [27] = florpyrauxifen-benzyl 4 g a.i./ha alone
structure (smiles),measurement,setting,value
CN1C[C@H](c2cccc(C(F)(F)F)c2)[C@@H](C(=O)Nc2ccccc2F)C1=O [Cmpd. No. 1],ECHPH Obsd. plant response rating (0 to 100),[1]; Cmpd. No. 1 50 g a.i./ha alone,75
same,ECHPH Obsd. plant response rating (0 to 100),[1]; Cmpd. No. 1 75 g a.i./ha alone,85
same,ORYSA Obsd. plant response rating (0 to 100),[2]; in vivo,0
same,LEPCH Obsd. plant response rating (0 to 100),[3]; Cmpd. No. 1 50 g a.i./ha alone,75
same,LEPCH Obsd. plant response rating (0 to 100),[3]; Cmpd. No. 1 75 g a.i./ha alone,85
same,MOOVA Obsd. plant response rating (0 to 100),[4]; Cmpd. No. 1 50 g a.i./ha alone,70
same,MOOVA Obsd. plant response rating (0 to 100),[4]; Cmpd. No. 1 75 g a.i./ha alone,70
same,CYPDI Obsd. plant response rating (0 to 100),[5]; Cmpd. No. 1 50 g a.i./ha alone,0
same,CYPDI Obsd. plant response rating (0 to 100),[5]; Cmpd. No. 1 75 g a.i./ha alone,0
same,HETLI Obsd. plant response rating (0 to 100),[6]; Cmpd. No. 1 50 g a.i./ha alone,70
same,HETLI Obsd. plant response rating (0 to 100),[6]; Cmpd. No. 1 75 g a.i./ha alone,70
same,ECHCG Obsd. plant response rating (0 to 100),[7]; Cmpd. No. 1 50 g a.i./ha alone,70
same,ECHCG Obsd. plant response rating (0 to 100),[7]; Cmpd. No. 1 75 g a.i./ha alone,70
Cc1cc([C@H]2CN(C)C(=O)[C@@H]2C(=O)Nc2cccc(F)c2F)cc(OC(F)F)n1 [Cmpd. No. 4],Ragweed plant response rating (0 to 100),[8]; 31 g ai/ha,0
same,Ragweed plant response rating (0 to 100),[8]; 125 g ai/ha,20
same,Ducksalad plant response rating (0 to 100),[9],100
same,"Foxtail, Green plant response rating (0 to 100)",[10]; 31 g ai/ha,70
same,"Foxtail, Green plant response rating (0 to 100)",[10]; 125 g ai/ha,90
same,Corn plant response rating (0 to 100),corn (Zea mays); 31 g ai/ha,60
same,Corn plant response rating (0 to 100),corn (Zea mays); 125 g ai/ha,80
same,"Sedge, Umbrella plant response rating (0 to 100)",[11],0
same,Galium plant response rating (0 to 100),[12]; 31 g ai/ha,0
same,Galium plant response rating (0 to 100),[12]; 125 g ai/ha,60
same,Rice plant response rating (0 to 100),rice (Oryza sativa),30
same,Barnyardgrass plant response rating (0 to 100),[13],85
same,Blackgrass plant response rating (0 to 100),[14]; 31 g ai/ha,60
same,Blackgrass plant response rating (0 to 100),[14]; 125 g ai/ha,70
same,"Ryegrass, Italian plant response rating (0 to 100)",[15]; 31 g ai/ha,30
same,"Ryegrass, Italian plant response rating (0 to 100)",[15]; 125 g ai/ha,70
same,Kochia plant response rating (0 to 100),kochia (Kochia scoparia) [16]; 31 g ai/ha,0
same,Kochia plant response rating (0 to 100),kochia (Kochia scoparia) [16]; 125 g ai/ha,80
same,Ragweed plant response rating (0 to 100),[17]; 31 g ai/ha,0
same,Ragweed plant response rating (0 to 100),[17]; 125 g ai/ha,60
same,Wheat plant response rating (0 to 100),[18]; 31 g ai/ha,40
same,Wheat plant response rating (0 to 100),[18]; 125 g ai/ha,70
same,"Ryegrass, Italian plant response rating (0 to 100)",[19]; 31 g ai/ha,30
same,"Ryegrass, Italian plant response rating (0 to 100)",[19]; 125 g ai/ha,90
same,"Foxtail, Green plant response rating (0 to 100)",[20]; 31 g ai/ha,100
same,"Foxtail, Green plant response rating (0 to 100)",[20]; 125 g ai/ha,100
same,Kochia plant response rating (0 to 100),kochia (Kochia scoparia) [21]; 31 g ai/ha,0
same,Kochia plant response rating (0 to 100),kochia (Kochia scoparia) [21]; 125 g ai/ha,20
same,Barnyardgrass plant response rating (0 to 100),[22]; 31 g ai/ha,80
same,Barnyardgrass plant response rating (0 to 100),[22]; 125 g ai/ha,90
same,Pigweed plant response rating (0 to 100),[23]; 31 g ai/ha,40
same,Pigweed plant response rating (0 to 100),[23]; 125 g ai/ha,90
same,Pigweed plant response rating (0 to 100),[24]; 31 g ai/ha,20
same,Pigweed plant response rating (0 to 100),[24]; 125 g ai/ha,60
same,Barnyardgrass plant response rating (0 to 100),[25]; 31 g ai/ha,100
same,Barnyardgrass plant response rating (0 to 100),[25]; 125 g ai/ha,100
"COc1c(Cl)ccc(-c2nc(C(=O)OCc3ccccc3)c(Cl)c(N)c2F)c1F [florpyrauxifen-benzyl, 2-pyridinecarboxylic acid, 4-amino-3-chloro-6-(4-chloro-2-fluoro-3-methoxyphenyl)-5-fluoro-, phenylmethyl ester, reference compound]",ECHPH Obsd. plant response rating (0 to 100),[1]; [26],0
same,ECHPH Obsd. plant response rating (0 to 100),[1]; [27],0
same,ORYSA Obsd. plant response rating (0 to 100),"[2]; florpyrauxifen-benzyl 2 g a.i./ha alone, 14 d",0
same,ORYSA Obsd. plant response rating (0 to 100),"[2]; florpyrauxifen-benzyl 4 g a.i./ha alone, 14 d",0
same,LEPCH Obsd. plant response rating (0 to 100),[3]; [26],0
same,LEPCH Obsd. plant response rating (0 to 100),[3]; [27],0
same,MOOVA Obsd. plant response rating (0 to 100),[4]; [26],90
same,MOOVA Obsd. plant response rating (0 to 100),[4]; [27],100
same,CYPDI Obsd. plant response rating (0 to 100),[5]; [26],80
same,CYPDI Obsd. plant response rating (0 to 100),[5]; [27],85
same,HETLI Obsd. plant response rating (0 to 100),[6]; [26],90
same,HETLI Obsd. plant response rating (0 to 100),[6]; [27],100
same,ECHCG Obsd. plant response rating (0 to 100),[7]; [26],0
same,ECHCG Obsd. plant response rating (0 to 100),[7]; [27],0
